This passage reports IC50 results from patent US6197806A, “Eliminating agent for activated oxygen and free radicals” (Nippon Zoki Pharmaceutical Co., Ltd., priority 1995, dated 2001).

SMILES strings stand for the structures.

This experiment can be described thus: Measurement of ability for eliminating hydroxyl radicals (ESR spin trapping method, Fenton's reaction, DMPO). The settings on record: 1 mM of DMPO; DMPO-OH ESR signal; phosphate buffer pH 7.8; room temperature; read-out: Concentration of Test Substance at 50% Inhibition of Signal Intensity, IC50.

Procedure: Ability of the test substances for eliminating hydroxyl radicals was measured using an ESR spin trapping method which is frequently used for the detection of hydroxyl radicals. Generation of hydroxyl radicals was carried out using a Fenton's reaction in which hydroxyl radicals are generated by a reaction of divalent iron chelated with DTPA (diethylenediamine-pentaacetic acid) with hydrogen peroxide. […] When a test substance having an eliminating action for hydroxyl radicals is present in this reaction system, the above characteristic signal is inhibited and, therefore, the ability for eliminating hydroxyl radicals can be measured using that signal inhibition as an index.
Thus, a solution of a mixture of 1 mM of ferrous sulfate and DTPA dissolved in 100 mM of a phosphate buffer (pH 7.8) was charged in a test tube. Then, 50 μl of a sample solution containing the test substance or hydantoin compound of the invention and 20 μl of 1 mM or 2 mM of DMPO were added. Finally, 75 μl of 1 mM of hydrogen peroxide solution was added to the resulting mixture to initiate the reaction. Hydrogen peroxide solution was prepared immediately before each of the experiments and the reaction was conducted at room temperature.
An ESR spectrum in this reaction system was measured by conventional means. […]

In the case of `CN1C(=O)NC(=O)C1O` (stereo not shown) [Compound 21, 5-Hydroxy-1-methylhydantoin], the IC50 was determined as 1 mM.
